In patent US20260191849A1, “PHARMACEUTICAL COMPOSITION FOR TREATMENT OF CANCER” (WIGEN BIOMEDICINE TECHNOLOGY (SHANGHAI) CO., LTD., priority 2022, published 2026):
pIC50: −log10 of the molar value. Like-named read-outs stand apart in the source and are kept apart here.

What was measured:
[1] = test system: HCT116 cells; test: In vitro anti-proliferative activity against HCT116 cells (Biological Example 2); format: cell-based; details: in words, from Table 4
Description: (§1) HCT116 cells were seeded on a 384-well plate at 3000 cells/well. After overnight adherence culture, DMSO or the compounds serially diluted in a 1:5 ratio from 5 μM were added. The cell viability was assessed 72 h after dosing by measuring the intracellular ATP content. The inhibition percentages of viable cells by the compounds were calculated by comparing with the DMSO group, and the IC50 values were also calculated.

[2] = test system: HT29 subcutaneous xenograft tumors; test: In vivo pharmacodynamic study, HT29 subcutaneous xenograft tumor model of mice (Biological Example 3); parameters: species or system BALB/c nude mice; details: 80 mg/kg intragastric once daily, day 28
Description: BALB/c nude mice were each inoculated subcutaneously with 5×10^6 HT29 cells on the left dorsal side. After the tumors grew to 100-150 mm^3, the mice were randomly divided into the following groups for intragastric administration once daily: group 1: vehicle control group; group 2: compound 661 (80 mg/kg); group 3: compound 669 (80 mg/kg); group 4: compound 677 (80 mg/kg); group 5: compound 714 (80 mg/kg); group 6: compound 727 (80 mg/kg); group 7: compound 740 (80 mg/kg); and group 8: AMG65 (80 mg/kg). The tumor volume was measured twice weekly and at the end of administration. […].

[3] = test system: HT29 subcutaneous xenograft tumors; test: In vivo pharmacodynamic study of combination therapy, HT29 subcutaneous xenograft tumor model of mice (Biological Example 14); parameters: species or system BALB/c nude mice
Excerpt: BALB/c nude mice were each inoculated subcutaneously with 5×10^6 HT29 cells on the left dorsal side. After the tumors grew to 100-150 mm^3, the mice were randomly divided into the following groups for intragastric administration once daily for 14 consecutive days: group 1: vehicle control group; group 2: AMG650 (50 mpk, PO, QD); group 3: compound 714 (50 mpk, PO, QD); group 4: AMG650 (50 mpk, PO, QD)+Onvasertib (20 mpk, PO, QD); group 5: compound 714 (50 mpk, PO, QD)+Onvasertib (20 mpk, PO, QD); and group 6: Onvasertib (20 mpk, PO, QD). The administration to all the groups was stopped on day 15, and the tumor growth continued to be observed until day 21. The tumor volume was measured twice weekly and at the end of administration. […]

[4] = test system: HCT116 cells; test: Combined use of compound 257 with PLK1 inhibitor on HCT116 cell viability, 72 h (Biological Example 6); format: cell-based
Description: as §1, with “or compound 257” for “or the compounds”, “μM and a PLK1 inhibitor with a specified concentration” for “μM”

[5] = test system: HT29 cells; test: Combined use of compound 257 with PLK1 inhibitor (CYC140, TAK-960) on HT29 cell viability, 168 h (Biological Example 9); format: cell-based; details: for Maximum inhibition rate / Minimum inhibition rate / pIC50 / inhibition: HT29 cells; for pIC50 / inhibition: Homo sapiens, HT-29, 168 h
Description: as §1, with “HT29 cells” for “HCT116 cells”, “or compound 257” for “or the compounds”, “from 400 nM and a PLK1 inhibitor with a specified concentration” for “from 5 μM”, “assessed 168” for “assessed 72”

[6] = test system: HCT116 cells; test: Combined use of compound 257 with PLK1 inhibitor (CYC140, TAK-960) on HCT116 cell viability, 168 h (Biological Example 10); format: cell-based
Description: as §1, with “or compound 257” for “or the compounds”, “from 400 nM and a PLK1 inhibitor with a specified concentration” for “from 5 μM”, “assessed 168” for “assessed 72”

[7] = test system: HT29 cells; test: Combined use of compound 257 with Aurora B inhibitor on HT29 cell viability, 72 h (Biological Example 11); format: cell-based; details: for pIC50: Homo sapiens, HT-29, 72 h, HT29 cells
Description: as §1, with “HT29 cells” for “HCT116 cells”, “or compound 257” for “or the compounds”, “μM and an Aurora B inhibitor with a specified concentration” for “μM”

[8] = test system: HCT116 cells; test: Combined use of compound 257 with Aurora B inhibitor on HCT116 cell viability, 72 h (Biological Example 12); format: cell-based
Description: as §1, with “or compound 257” for “or the compounds”, “μM and an Aurora B inhibitor with a specified concentration” for “μM”

[9] = PO QD 14 days, AMG650/714 50 mpk, Onvasertib 20 mpk, day 15
[10] = PO QD 14 days, AMG650/714 50 mpk, Onvasertib 20 mpk, day 21, after stop of administration

Cc1cc(NC(=O)c2ccc(NS(=O)(=O)CCO)cc2N2CCC3(CC2)CC3)nc(N2CCC(F)(F)CC2)n1 [AMG650]
anti-proliferative activity against HCT116 cells [1]: neither the compounds of the present disclosure nor AMG65 exhibited anti-proliferative activity
TGI [2]: 64%
Tumor volume on day 1 of administration ([3]; PO QD 14 days, AMG650/714 50 mpk, Onvasertib 20 mpk, day 1 (baseline)): 132 mm^3
TGI on day 15 [3, 9]: 115%
Tumor volume on day 15 of administration [3, 9]: 49 mm^3
TGI on day 21 [3, 10]: 100%
Tumor volume on day 21 of administration [3, 10]: 126 mm^3
tumor inhibitory effect, combined use with the PLK1 inhibitor Onvasertib compared with monotherapy ([3]; combined with Onvasertib, in words): stronger tumor inhibitory effect
therapeutic efficacy of monotherapy in HT29-bearing mice ([3]; monotherapy, in words): able to inhibit tumor growth

COc1ccc(NC(=O)c2ccc(NS(=O)(=O)CCO)cc2N2CCC3(CC2)CC3)nc1N1CCC(F)(F)CC1 [Compound 257]
pIC50 ([4]; HCT116 cells, Volasertib 10 nM): < 5.00
pIC50 ([4]; HCT116 cells, Volasertib 50 nM): < 5.00
pIC50 ([4]; Homo sapiens, HCT-116, HCT116 cells, Volasertib 0 nM): < 5.00
anti-proliferative activity against HCT116 cells, monotherapy ([4]; in words): did not exhibit anti-proliferative activity
synergistic effect on HCT116 cell viability, combined use with the PLK1 inhibitor ([4]; in words): no significant synergistic effect
inhibitory effect on HT-29 cells, combined use with the PLK1 inhibitor compared with monotherapy ([5]; CYC140 or TAK-960, in words): stronger inhibitory effect
Maximum inhibition rate ([5]; CYC140 (Plogosertib) 0 nM): 44.2%
Minimum inhibition rate ([5]; CYC140 (Plogosertib) 0 nM): -7.1%
Maximum inhibition rate ([5]; TAK-960 0 nM): 57.1%
Minimum inhibition rate ([5]; TAK-960 0 nM): 1.5%
pIC50 ([5]; CYC140 (Plogosertib) 0 nM): 7.80
pIC50 ([5]; CYC140 (Plogosertib) 1.6 nM): 7.98
inhibition ([5]; CYC140 (Plogosertib) 1.6 nM, read-out: Maximum inhibition rate): 80.3%
inhibition ([5]; CYC140 (Plogosertib) 1.6 nM, read-out: Minimum inhibition rate): -0.7%
pIC50 ([5]; CYC140 (Plogosertib) 8 nM): 8.51
inhibition ([5]; CYC140 (Plogosertib) 8 nM, read-out: Maximum inhibition rate): 90.9%
inhibition ([5]; CYC140 (Plogosertib) 8 nM, read-out: Minimum inhibition rate): 0.4%
pIC50 ([5]; TAK-960 0 nM): 7.85
pIC50 ([5]; TAK-960 8 nM): 7.88
inhibition ([5]; TAK-960 8 nM, read-out: Maximum inhibition rate): 86.1%
inhibition ([5]; TAK-960 8 nM, read-out: Minimum inhibition rate): 7.5%
pIC50 ([5]; TAK-960 40 nM): 8.62
inhibition ([5]; TAK-960 40 nM, read-out: Maximum inhibition rate): 93.6%
inhibition ([5]; TAK-960 40 nM, read-out: Minimum inhibition rate): -4%
synergistic effect on HCT116 cell viability, combined use with the PLK1 inhibitor ([6]; CYC140 or TAK-960, in words): no significant synergistic effect
pIC50 ([6]; HCT116 cells, CYC140 (Plogosertib) 1.6 nM): < 6.40
pIC50 ([6]; HCT116 cells, CYC140 (Plogosertib) 8 nM): < 6.40
pIC50 ([6]; HCT116 cells, TAK-960 0 nM): < 6.40
pIC50 ([6]; HCT116 cells, TAK-960 8 nM): < 6.40
pIC50 ([6]; HCT116 cells, TAK-960 40 nM): < 6.40
pIC50 ([6]; Homo sapiens, HCT-116, HCT116 cells, CYC140 (Plogosertib) 0 nM): < 6.40
anti-proliferative activity against HCT116 cells, monotherapy ([6]; in words): did not exhibit anti-proliferative activity
pIC50 ([7]; Barasertib 0 nM): 7.86
pIC50 ([7]; Barasertib 20 nM): 8.14
pIC50 ([7]; Barasertib 100 nM): 8.38
pIC50 ([7]; Barasertib 500 nM): 8.48
pIC50 ([7]; SP-96 0 nM): 7.84
pIC50 ([7]; SP-96 20 nM): 7.79
pIC50 ([7]; SP-96 100 nM): 7.84
pIC50 ([7]; SP-96 500 nM): 8.24
inhibitory effect on HT-29 cells, combined use with the Aurora B inhibitor compared with monotherapy ([7]; in words): stronger inhibitory effect
pIC50 ([8]; HCT116 cells, Barasertib 0 nM): < 5.00
pIC50 ([8]; HCT116 cells, Barasertib 10 nM): < 5.00
pIC50 ([8]; HCT116 cells, Barasertib 100 nM): < 5.00
pIC50 ([8]; Homo sapiens, HCT-116, HCT116 cells, Barasertib 1000 nM): < 5.00
anti-proliferative activity against HCT116 cells, monotherapy ([8]; in words): did not exhibit anti-proliferative activity
synergistic effect on HCT116 cell viability, combined use with the Aurora B inhibitor ([8]; in words): no significant synergistic effect
